Experiments:
Format in all cases: cell-based
[1] = target: T1, human TLR9 (Homo sapiens, UniProt Q9NR96); assay: TLR7/8/9 Inhibition Reporter Assays (TLR9); details: HEK-Blue cells overexpressing human TLR9, SEAP reporter, stimulated with TLR9 ligand ODN2006
T1 construct: host or cells: HEK-Blue cells (HEK293-derived reporter line)
T1 sequence (Q9NR96 26-1032): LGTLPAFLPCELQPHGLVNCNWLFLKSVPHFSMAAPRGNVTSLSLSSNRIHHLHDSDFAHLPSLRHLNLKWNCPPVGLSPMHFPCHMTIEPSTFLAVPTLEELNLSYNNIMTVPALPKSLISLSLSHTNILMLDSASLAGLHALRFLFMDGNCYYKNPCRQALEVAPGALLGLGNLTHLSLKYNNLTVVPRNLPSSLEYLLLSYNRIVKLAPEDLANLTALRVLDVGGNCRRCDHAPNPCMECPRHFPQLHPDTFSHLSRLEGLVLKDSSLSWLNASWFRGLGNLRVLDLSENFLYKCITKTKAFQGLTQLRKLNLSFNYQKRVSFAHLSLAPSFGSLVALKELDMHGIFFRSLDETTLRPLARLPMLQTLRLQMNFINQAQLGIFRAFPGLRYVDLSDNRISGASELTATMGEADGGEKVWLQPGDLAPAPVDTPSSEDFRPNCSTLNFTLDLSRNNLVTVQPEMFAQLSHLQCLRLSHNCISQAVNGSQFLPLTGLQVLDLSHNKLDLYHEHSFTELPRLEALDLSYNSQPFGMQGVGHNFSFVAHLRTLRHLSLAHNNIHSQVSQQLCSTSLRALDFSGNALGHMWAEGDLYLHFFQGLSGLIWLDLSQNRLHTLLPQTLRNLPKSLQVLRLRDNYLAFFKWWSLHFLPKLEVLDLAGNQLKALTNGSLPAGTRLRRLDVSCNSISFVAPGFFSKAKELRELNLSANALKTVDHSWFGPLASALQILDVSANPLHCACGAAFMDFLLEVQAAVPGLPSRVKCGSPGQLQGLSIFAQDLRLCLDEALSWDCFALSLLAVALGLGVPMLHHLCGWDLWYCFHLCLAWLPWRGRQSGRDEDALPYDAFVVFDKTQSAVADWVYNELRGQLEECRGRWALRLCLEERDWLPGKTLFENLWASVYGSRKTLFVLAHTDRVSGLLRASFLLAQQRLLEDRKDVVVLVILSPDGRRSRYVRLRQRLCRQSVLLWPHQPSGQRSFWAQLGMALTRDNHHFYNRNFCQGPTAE
Procedure, shortened: (§1)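 HEK-Blue cells overexpressing human TLR7, TLR8 or TLR9 with NF-κB/AP-1-driven SEAP reporter, pre-treated 60 min with compound ([…]). Stimulated with […] (TLR7), […] (TLR8) or ODN2006 200 nM (TLR9), then 22 h at 37° C; SEAP measured, % inhibition relative to agonist-plus-DMSO and known-inhibitor wells.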

[2] = target: T2, human TLR7 (Homo sapiens, UniProt Q9NYK1); assay: TLR7/8/9 Inhibition Reporter Assays (TLR7); details: HEK-Blue cells overexpressing human TLR7, SEAP reporter, stimulated with TLR7 ligand gardiquimod
T2 construct: host or cells: HEK-Blue cells (HEK293-derived reporter line)
T2 sequence (Q9NYK1 27-1049): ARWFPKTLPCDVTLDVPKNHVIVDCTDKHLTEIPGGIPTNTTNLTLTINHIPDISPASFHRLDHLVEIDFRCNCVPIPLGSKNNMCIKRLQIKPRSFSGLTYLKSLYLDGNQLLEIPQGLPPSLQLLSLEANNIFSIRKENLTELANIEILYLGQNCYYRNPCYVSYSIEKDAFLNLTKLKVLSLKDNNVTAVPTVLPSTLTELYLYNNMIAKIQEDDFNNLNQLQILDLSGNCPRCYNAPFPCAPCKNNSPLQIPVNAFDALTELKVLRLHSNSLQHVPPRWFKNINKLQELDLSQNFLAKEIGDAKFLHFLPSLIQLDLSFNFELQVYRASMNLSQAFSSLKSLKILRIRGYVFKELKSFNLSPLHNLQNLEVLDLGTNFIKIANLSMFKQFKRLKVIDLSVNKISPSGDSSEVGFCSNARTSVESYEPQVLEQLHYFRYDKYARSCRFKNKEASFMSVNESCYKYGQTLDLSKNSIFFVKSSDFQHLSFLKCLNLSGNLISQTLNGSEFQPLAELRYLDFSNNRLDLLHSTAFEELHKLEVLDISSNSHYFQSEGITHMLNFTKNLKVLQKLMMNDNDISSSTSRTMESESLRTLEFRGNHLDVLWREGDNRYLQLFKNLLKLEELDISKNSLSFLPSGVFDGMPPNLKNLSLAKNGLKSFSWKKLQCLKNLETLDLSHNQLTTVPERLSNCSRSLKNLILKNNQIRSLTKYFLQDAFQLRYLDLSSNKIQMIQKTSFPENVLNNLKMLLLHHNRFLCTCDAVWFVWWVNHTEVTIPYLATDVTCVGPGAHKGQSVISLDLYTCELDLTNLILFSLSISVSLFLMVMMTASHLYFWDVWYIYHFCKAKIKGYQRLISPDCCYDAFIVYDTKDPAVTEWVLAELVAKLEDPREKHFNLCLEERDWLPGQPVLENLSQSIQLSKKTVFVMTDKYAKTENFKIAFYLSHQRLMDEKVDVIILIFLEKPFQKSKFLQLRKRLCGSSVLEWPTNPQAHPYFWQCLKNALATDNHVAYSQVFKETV
Procedure, shortened: as §1

[3] = target: T3, human TLR8 (Homo sapiens, UniProt Q9NR97); assay: TLR7/8/9 Inhibition Reporter Assays (TLR8); details: HEK-Blue cells overexpressing human TLR8, SEAP reporter, stimulated with TLR8 ligand R848
T3 construct: host or cells: HEK-Blue cells (HEK293-derived reporter line)
T3 sequence (Q9NR97 27-1041): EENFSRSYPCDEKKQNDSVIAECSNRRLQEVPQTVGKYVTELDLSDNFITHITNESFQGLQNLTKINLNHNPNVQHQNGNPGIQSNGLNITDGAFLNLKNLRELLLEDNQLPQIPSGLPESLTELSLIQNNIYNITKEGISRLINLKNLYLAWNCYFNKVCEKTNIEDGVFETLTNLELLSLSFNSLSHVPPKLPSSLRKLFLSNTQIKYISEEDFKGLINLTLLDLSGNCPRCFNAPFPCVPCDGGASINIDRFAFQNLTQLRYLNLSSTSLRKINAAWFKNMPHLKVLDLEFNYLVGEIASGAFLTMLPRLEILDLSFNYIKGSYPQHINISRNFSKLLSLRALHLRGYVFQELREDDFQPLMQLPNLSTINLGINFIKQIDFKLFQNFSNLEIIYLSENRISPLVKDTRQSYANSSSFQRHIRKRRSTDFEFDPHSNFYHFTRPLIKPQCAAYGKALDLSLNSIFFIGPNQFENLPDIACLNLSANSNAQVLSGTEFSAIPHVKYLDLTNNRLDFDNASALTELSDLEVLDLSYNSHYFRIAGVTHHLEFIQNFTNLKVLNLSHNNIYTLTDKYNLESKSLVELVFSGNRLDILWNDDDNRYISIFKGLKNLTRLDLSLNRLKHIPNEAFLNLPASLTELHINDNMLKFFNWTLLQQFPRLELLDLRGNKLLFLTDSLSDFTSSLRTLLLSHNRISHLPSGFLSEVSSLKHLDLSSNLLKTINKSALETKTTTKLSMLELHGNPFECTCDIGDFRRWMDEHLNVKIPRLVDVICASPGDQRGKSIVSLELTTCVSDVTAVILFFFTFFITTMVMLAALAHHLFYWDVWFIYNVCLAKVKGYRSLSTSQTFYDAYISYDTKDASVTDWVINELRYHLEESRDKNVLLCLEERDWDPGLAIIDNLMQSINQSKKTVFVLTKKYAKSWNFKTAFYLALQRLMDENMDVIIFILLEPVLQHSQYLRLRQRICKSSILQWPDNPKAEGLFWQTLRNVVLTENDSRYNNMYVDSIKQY
Procedure, shortened: as §1

Row | Compound | IC50 [1] | IC50 [2] | IC50 [3]
1 | COC1CCN(Cc2ccc(-c3ccc(-c4cc5c(nc(-c6ccc(S(C)(=O)=O)cc6)n5C)c(C)n4)cc3)nc2)CC1 [Example 50, 6-(4-(5-((4-methoxypiperidin-1-yl)methyl)pyridin-2-yl)phenyl)-1,4-dimethyl-2-(4-(methylsulfonyl)phenyl)-1H-imidazo[4,5-c]pyridine] | 530 nM | 1100 nM | > 50000 nM
2 | Cc1nc(-c2ccc(CN3CCC(N4CCOCC4)CC3)cc2)cc2c1nc(-c1ccc(S(C)(=O)=O)cc1)n2C [Example 54, 4-(1-(4-(1,4-dimethyl-2-(4-(methylsulfonyl)phenyl)-1H-imidazo[4,5-c]pyridin-6-yl)benzyl)piperidin-4-yl)morpholine] | 240 nM | > 50000 nM | 9500 nM
3 | CS(=O)(=O)c1ccc(-c2nc3cnc(-c4ccc(N5CCN(CCN6CCOCC6)CC5)cc4)cc3n2C2CC2)cc1 [Example 56, 4-(2-(4-(4-(1-cyclopropyl-2-(4-(methylsulfonyl)phenyl)-1H-imidazo[4,5-c]pyridin-6-yl)phenyl)piperazin-1-yl)ethyl)morpholine] | 880 nM | > 50000 nM | 46000 nM
4 | Cc1nc(-c2ccc(N3CC4(CN(CC(C)C)C4)C3)cc2)cc2c1nc(-c1ccc(S(C)(=O)=O)cc1)n2C [Example 57, 6-(4-(6-isobutyl-2,6-diazaspiro[3.3]heptan-2-yl)phenyl)-1,4-dimethyl-2-(4-(methylsulfonyl)phenyl)-1H-imidazo[4,5-c]pyridine] | 150 nM | 4000 nM | 4800 nM
5 | COc1ccc(-c2nc3cnc(-c4ccc(N5CCC6(CC5)CN(CC(C)C)C6)cc4)cc3n2C2CC2)cc1OC [Example 61, 1-cyclopropyl-2-(3,4-dimethoxyphenyl)-6-(4-(2-isobutyl-2,7-diazaspiro[3.5]nonan-7-yl)phenyl)-1H-imidazo[4,5-c]pyridine] | 160 nM | 12000 nM | 12000 nM
6 | CC(C)N1CC2(CCN(c3ccc(-c4cc5c(cn4)nc(-c4ccc(S(C)(=O)=O)cc4)n5C4CC4)cc3)CC2)C1 [Example 62, 1-cyclopropyl-6-(4-(2-isopropyl-2,7-diazaspiro[3.5]nonan-7-yl)phenyl)-2-(4-(methylsulfonyl)phenyl)-1H-imidazo[4,5-c]pyridine] | 250 nM | 5100 nM | 1200 nM

Now those with a lower IC50 [1], led by results:

Row | IC50 [1] | IC50 [2] | IC50 [3] | Compound
7 | 140 nM | 2300 nM | 37000 nM | COc1ccc(-c2nc3c(C)nc(-c4ccc(N5CCC6(CC5)CN(C(C)C)C6)cc4)cc3n2C)cc1OC [Example 60, 2-(3,4-dimethoxyphenyl)-6-(4-(2-isopropyl-2,7-diazaspiro[3.5]nonan-7-yl)phenyl)-1,4-dimethyl-1H-imidazo[4,5-c]pyridine]
8 | 99 nM | 2400 nM | 640 nM | CS(=O)(=O)c1ccc(-c2nc3cnc(-c4ccc(N5CCN(CCCN6CCOCC6)CC5)cc4)cc3n2C2CC2)cc1 [Example 55, 4-(3-(4-(4-(1-cyclopropyl-2-(4-(methylsulfonyl)phenyl)-1H-imidazo[4,5-c]pyridin-6-yl)phenyl)piperazin-1-yl)propyl) morpholine]
9 | 89 nM | 1300 nM | > 50000 nM | COc1ccc(-c2nc3c(C)nc(-c4ccc(N5CC6(CN(CC(C)(C)O)C6)C5)cc4)cc3n2C)cc1OC [Example 58, 1-(6-(4-(2-(3,4-dimethoxyphenyl)-1,4-dimethyl-1H-imidazo[4,5-c]pyridin-6-yl)phenyl)-2,6-diazaspiro[3.3]heptan-2-yl)-2-methylpropan-2-ol]
10 | 74 nM | 3100 nM | 7600 nM | Cc1nc(-c2ccc(CCN3CCC(N4CCOCC4)CC3)cc2)cc2c1nc(-c1ccc(S(C)(=O)=O)cc1)n2C [Example 53, 4-(1-(4-(1,4-dimethyl-2-(4-(methylsulfonyl)phenyl)-1H-imidazo[4,5-c]pyridin-6-yl)phenethyl)piperidin-4-yl) morpholine]
11 | 28 nM | 1700 nM | 2600 nM | Cc1nc(-c2ccc(N3CCN(CCCN4CCOCC4)CC3)cc2)cc2c1nc(-c1ccc(S(C)(=O)=O)cc1)n2C [Example 52, 4-(3-(4-(4-(1,4-dimethyl-2-(4-(methylsulfonyl)phenyl)-1H-imidazo[4,5-c]pyridin-6-yl)phenyl)piperazin-1-yl)propyl)morpholine]
12 | 24 nM | 1700 nM | 21000 nM | COc1ccc(-c2nc3c(C)nc(-c4ccc(N5C[C@@H]6CN(C(C)C)C[C@@H]6C5)cc4)cc3n2C)cc1OC [Example 59, 2-(3,4-dimethoxyphenyl)-6-(4-((3aR,6aS)-5-isopropylhexahydropyrrolo[3,4-c]pyrrol-2(1H)-yl)phenyl)-1,4-dimethyl-1H-imidazo[4,5-c]pyridine]
